# According to PubChem BioAssay (NCI):
#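 GI50 marks 50% less growth. TGI: concentration producing complete growth inhibition.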
# Legend:
# Assay in all cases: NCI tumour cell line growth inhibition, 384-well format
# SR leukemia = test system: SR leukemia
# OVCAR-3 ovarian = test system: OVCAR-3 ovarian
# MOLT-4 leukemia = test system: MOLT-4 leukemia
# RPMI-8226 leukemia = test system: RPMI-8226 leukemia
# CCRF-CEM leukemia = test system: CCRF-CEM leukemia
# K-562 leukemia = test system: K-562 leukemia
# A549 NSCLC = test system: A549 NSCLC
# HOP-92 NSCLC = test system: HOP-92 NSCLC
# UACC-62 melanoma = test system: UACC-62 melanoma
# IGROV1 ovarian = test system: IGROV1 ovarian
# DU-145 prostate = test system: DU-145 prostate
# M14 melanoma = test system: M14 melanoma
# UACC-257 melanoma = test system: UACC-257 melanoma
# A498 renal = test system: A498 renal
# BT-549 breast = test system: BT-549 breast
# RXF 393 renal = test system: RXF 393 renal
# SK-OV-3 ovarian = test system: SK-OV-3 ovarian
# SW-620 colon = test system: SW-620 colon
# HL-60(TB) leukemia = test system: HL-60(TB) leukemia
# HT29 colon = test system: HT29 colon
# 786-0 renal = test system: 786-0 renal
# MCF7 breast = test system: MCF7 breast
# NCI-H522 lung = test system: NCI-H522 lung
# NCI-H23 lung = test system: NCI-H23 lung
# HOP-62 NSCLC = test system: HOP-62 NSCLC
# MALME-3M melanoma = test system: MALME-3M melanoma
# UO-31 renal = test system: UO-31 renal
# NCI-H460 NSCLC = test system: NCI-H460 NSCLC
# OVCAR-4 ovarian = test system: OVCAR-4 ovarian
# U251 glioblastoma = test system: U251 glioblastoma
# T-47D breast = test system: T-47D breast
# LOX IMVI melanoma = test system: LOX IMVI melanoma
# HS 578T breast = test system: HS 578T breast
# MDA-MB-435 melanoma = test system: MDA-MB-435 melanoma
# NCI-H226 lung = test system: NCI-H226 lung
# TK-10 renal = test system: TK-10 renal
# KM12 colon = test system: KM12 colon
# MDA-MB-231 breast = test system: MDA-MB-231 breast
# NCI-H322M lung = test system: NCI-H322M lung
# OVCAR-5 ovarian = test system: OVCAR-5 ovarian
# EKVX NSCLC = test system: EKVX NSCLC
# NCI/ADR-RES ovarian = test system: NCI/ADR-RES ovarian
# SK-MEL-28 melanoma = test system: SK-MEL-28 melanoma
# ACHN renal = test system: ACHN renal
# SN12C renal = test system: SN12C renal
# HCT-116 colon = test system: HCT-116 colon
# HCC-2998 colon = test system: HCC-2998 colon
# SK-MEL-5 melanoma = test system: SK-MEL-5 melanoma
# OVCAR-8 ovarian = test system: OVCAR-8 ovarian
# CAKI-1 renal = test system: CAKI-1 renal
# MDA-MB-468 breast = test system: MDA-MB-468 breast
# SK-MEL-2 melanoma = test system: SK-MEL-2 melanoma
# HCT-15 colon = test system: HCT-15 colon
# PC-3 prostate = test system: PC-3 prostate
# COLO 205 colon = test system: COLO 205 colon
smiles,measurement,setting,value
CO[C@@]12[C@H](COC(N)=O)C3=C(C(=O)C(C)=C(N)C3=O)N1C[C@@H]1N[C@@H]12,GI50,SR leukemia,13.5 nM
same,TGI,SR leukemia,28.1 nM
same,GI50,OVCAR-3 ovarian,1320 nM
same,TGI,OVCAR-3 ovarian,3770 nM
same,GI50,MOLT-4 leukemia,16.8 nM
same,TGI,MOLT-4 leukemia,31.1 nM
same,GI50,RPMI-8226 leukemia,161 nM
same,TGI,RPMI-8226 leukemia,675 nM
same,GI50,CCRF-CEM leukemia,108 nM
same,TGI,CCRF-CEM leukemia,257 nM
same,GI50,K-562 leukemia,914 nM
same,TGI,K-562 leukemia,2830 nM
same,GI50,A549 NSCLC,92.9 nM
same,TGI,A549 NSCLC,1060 nM
same,GI50,HOP-92 NSCLC,1850 nM
same,TGI,HOP-92 NSCLC,6780 nM
same,GI50,UACC-62 melanoma,100 nM
same,TGI,UACC-62 melanoma,1150 nM
same,GI50,IGROV1 ovarian,1030 nM
same,TGI,IGROV1 ovarian,2630 nM
same,GI50,DU-145 prostate,44.7 nM
same,TGI,DU-145 prostate,208 nM
same,GI50,M14 melanoma,97.4 nM
same,TGI,M14 melanoma,1190 nM
same,GI50,UACC-257 melanoma,914 nM
same,TGI,UACC-257 melanoma,2950 nM
same,GI50,A498 renal,179 nM
same,TGI,A498 renal,932 nM
same,GI50,BT-549 breast,258 nM
same,TGI,BT-549 breast,1890 nM
same,GI50,RXF 393 renal,1600 nM
same,TGI,RXF 393 renal,3190 nM
same,GI50,SK-OV-3 ovarian,137 nM
same,TGI,SK-OV-3 ovarian,770 nM
same,GI50,SW-620 colon,145 nM
same,TGI,SW-620 colon,1850 nM
same,GI50,HL-60(TB) leukemia,17.8 nM
same,TGI,HL-60(TB) leukemia,41 nM
same,GI50,HT29 colon,368 nM
same,TGI,HT29 colon,2250 nM
same,GI50,786-0 renal,261 nM
same,TGI,786-0 renal,3690 nM
same,GI50,MCF7 breast,94.7 nM
same,TGI,MCF7 breast,2870 nM
same,GI50,NCI-H522 lung,276 nM
same,TGI,NCI-H522 lung,1370 nM
same,GI50,NCI-H23 lung,46 nM
same,TGI,NCI-H23 lung,162 nM
same,GI50,HOP-62 NSCLC,38.7 nM
same,TGI,HOP-62 NSCLC,213 nM
same,GI50,MALME-3M melanoma,576 nM
same,TGI,MALME-3M melanoma,1960 nM
same,GI50,UO-31 renal,1130 nM
same,TGI,UO-31 renal,4710 nM
same,TGI,NCI-H460 NSCLC,110 nM
same,GI50,OVCAR-4 ovarian,2270 nM
same,TGI,OVCAR-4 ovarian,5230 nM
same,GI50,U251 glioblastoma,111 nM
same,TGI,U251 glioblastoma,1500 nM
same,GI50,T-47D breast,1600 nM
same,TGI,T-47D breast,11200 nM
same,GI50,LOX IMVI melanoma,159 nM
same,TGI,LOX IMVI melanoma,1300 nM
same,GI50,HS 578T breast,3260 nM
same,TGI,HS 578T breast,7500 nM
same,GI50,MDA-MB-435 melanoma,1710 nM
same,TGI,MDA-MB-435 melanoma,8720 nM
same,GI50,NCI-H226 lung,553 nM
same,TGI,NCI-H226 lung,3250 nM
same,GI50,TK-10 renal,1720 nM
same,TGI,TK-10 renal,13100 nM
same,GI50,KM12 colon,582 nM
same,TGI,KM12 colon,3600 nM
same,GI50,MDA-MB-231 breast,4010 nM
same,TGI,MDA-MB-231 breast,10700 nM
same,GI50,NCI-H322M lung,401 nM
same,TGI,NCI-H322M lung,1450 nM
same,GI50,OVCAR-5 ovarian,1120 nM
same,TGI,OVCAR-5 ovarian,4350 nM
same,GI50,EKVX NSCLC,4520 nM
same,TGI,EKVX NSCLC,11500 nM
same,GI50,NCI/ADR-RES ovarian,5800 nM
same,TGI,NCI/ADR-RES ovarian,> 43000 nM
same,GI50,SK-MEL-28 melanoma,1240 nM
same,TGI,SK-MEL-28 melanoma,5210 nM
same,GI50,ACHN renal,169 nM
same,TGI,ACHN renal,844 nM
same,GI50,SN12C renal,98.9 nM
same,TGI,SN12C renal,3160 nM
same,GI50,HCT-116 colon,82.3 nM
same,TGI,HCT-116 colon,1360 nM
same,GI50,HCC-2998 colon,236 nM
same,TGI,HCC-2998 colon,1380 nM
same,GI50,SK-MEL-5 melanoma,40.5 nM
same,TGI,SK-MEL-5 melanoma,102 nM
same,GI50,OVCAR-8 ovarian,439 nM
same,TGI,OVCAR-8 ovarian,4600 nM
same,GI50,CAKI-1 renal,226 nM
same,TGI,CAKI-1 renal,1640 nM
same,GI50,MDA-MB-468 breast,71.8 nM
same,TGI,MDA-MB-468 breast,212 nM
same,GI50,SK-MEL-2 melanoma,1250 nM
same,TGI,SK-MEL-2 melanoma,2680 nM
same,GI50,HCT-15 colon,328 nM
same,TGI,HCT-15 colon,2170 nM
same,GI50,PC-3 prostate,2340 nM
same,TGI,PC-3 prostate,9940 nM
same,GI50,COLO 205 colon,250 nM
same,TGI,COLO 205 colon,1890 nM
